Results published in the CombiSolv-Exp solvation set (Vermeire and Green 2021).

Assay: solvent given as SMILES

c1cc2ccc3cccc4ccc(c1)c2c34
Details	solvation free energy, 298 K [kcal/mol]
in Brc1ccccc1	-13.2
in C1CCOC1	-13.4
in C1COCCO1	-13
in CC(=O)N(C)C	-13.3
in CC(C)(C)O	-11.2
in CC(C)=O	-12.7
in CC(C)CC(C)(C)C	-11.3
in CC(C)CC(C)O	-11.4
in CC(C)CCO	-11.4
in CC(C)CO	-11.2
in CC(C)O	-11.5
in CC(C)OC(C)C	-12
in CC(O)COC(C)(C)C	-12.3
in CCC(C)(C)O	-11.5
in CCC(C)=O	-13
in CCC(C)O	-11.3
in CCCC(=O)OC	-12.7
in CCCC(C)CO	-11.5
in CCCC(C)O	-11.5
in CCCCC(CC)CO	-11.7
in CCCCCC	-11.5
in CCCCCCC	-11.6
in CCCCCCCC	-11.7
in CCCCCCCCC=CCCCCCCCC(=O)OCC(COC(=O)CCCCCCCC=CCCCCCCCC)OC(=O)CCCCCCCC=CCCCCCCCC	-12.3
in CCCCCCCCCC	-11.8
in CCCCCCCCO	-11.9
in CCCCCCCO	-11.8
in CCCCCCO	-11.8
in CCCCCO	-11.7
in CCCCCOC(C)=O	-12.7
in CCCCCl	-12.8
in CCCCO	-11.6
in CCCCOC(C)=O	-12.7
in CCCCOCCCC	-12.1
in CCCCOCCO	-12.4
in CCCO	-11.5
in CCCOCCO	-12.4
in CCO	-11.6
in CCOC(C)=O	-12.7
in CCOCC	-12.4
in CCOCCO	-12.5
in CN(C)C=O	-13.2
in CNC=O	-11.8
in CO	-11.2
in COC(C)(C)C	-12.2
in COC(C)=O	-12.6
in COC(C)CCO	-12.3
in COCCO	-12.2
in Cc1ccc(C)cc1	-12.8
in Cc1cccc(C)c1	-12.8
in Cc1ccccc1C	-12.9
in ClC(Cl)(Cl)Cl	-12.7
in ClC(Cl)Cl	-13.2
in ClCCCl	-13.2
in Fc1ccccc1	-12.9
in N#Cc1ccccc1	-13.1
in O	-4.77
in O=C1CCCCC1	-13.2

O=[N+]([O-])c1cccc2ccccc12
Details	solvation free energy, 298 K [kcal/mol]
in CC(C)(C)O	-9.71
in CC(C)CC(C)(C)C	-9.18
in CC(C)CCO	-9.67
in CC(C)CO	-9.55
in CC(C)O	-9.78
in CC(C)OC(C)C	-10.4
in CCC(C)O	-9.94
in CCCC(C)O	-9.83
in CCCCC(CC)CO	-9.76
in CCCCCC	-9.35
in CCCCCCC	-9.37
in CCCCCCCC	-9.38
in CCCCCCCCCC	-9.39
in CCCCCCCCCCO	-9.94
in CCCCCCCCO	-9.98
in CCCCCCCO	-9.98
in CCCCCCO	-10
in CCCCCO	-9.99
in CCCCO	-9.97
in CCCCOCCCC	-10.2
in CCCO	-9.99
in CCO	-10.1
in CCOCC	-11
in COC(C)(C)C	-10.9
in O	-5.65

NC1CCCCC1
Details	solvation free energy, 298 K [kcal/mol]
in C1CCCCC1	-5.47

CC(=O)OC1CC(C)CCC1C(C)C (stereo not drawn)
Details	solvation free energy, 298 K [kcal/mol]
in O	-2.59

CC(C)Br
Details	solvation free energy, 298 K [kcal/mol]
in C=CCCCCCCCCCCCCCC	-3.29
in O	-0.48

CC(=O)OCC=C(C)CCC=C(C)CCC=C(C)C
Details	solvation free energy, 298 K [kcal/mol]
in O	-3.96

C1CCCNCC1
Details	solvation free energy, 298 K [kcal/mol]
in C1CCCCC1	-5.66

C=CC(C)(C)C
Details	solvation free energy, 298 K [kcal/mol]
in C=CCCCCCCCCCCCCCC	-2.97
in O	1.57

CCCCl
Details	solvation free energy, 298 K [kcal/mol]
in Brc1cccc2ccccc12	-3.29
in C1CCOC1	-3.88
in C1CCOCC1	-3.79
in C=CCCCCCCCCCCCCCC	-3.01
in CC(=O)OCc1ccccc1	-3.4
in CC(C)CC(C)(C)C	-3.2
in CCC(C)=O	-3.68
in CCCCCC	-3.37
in CCCCCCC	-3.27
in CCCCCCCC	-3.22
in CCCCCCCCC=CCCCCCCCC(=O)OCC(COC(=O)CCCCCCCC=CCCCCCCCC)OC(=O)CCCCCCCC=CCCCCCCCC	-3.25
in CCCCCCCCCCCCCCCC	-3.01
in CCCCCCCCO	-3.06
in CCCCCl	-3.68
in CCCCO	-3.16
in CCOC(C)=O	-3.68
in Cc1ccc(C)cc1	-3.58
in ClC(Cl)(Cl)Cl	-3.7
in ClC(Cl)Cl	-3.62
in ClCCCl	-3.7
in O	-0.37
in O=C1CCCCC1	-3.67
in [2H]O[2H]	-0.74
in c1ccc2ncccc2c1	-3.35

CC(C)CC(C)O (stereo not drawn)
Details	solvation free energy, 298 K [kcal/mol]
in CCCCCCCC	-4.63
in CCCCCCCCCC	-4.56

CCCCC(=O)CC
Details	solvation free energy, 298 K [kcal/mol]
in CCCCCCC	-5.42
in CCCCO	-5.8
in CO	-5.85
in O	-3.04

Cc1c[nH]cn1
Details	solvation free energy, 298 K [kcal/mol]
in O	-10.3

CCC1(c2ccccc2)C(=O)NC(=O)NC1=O
Details	solvation free energy, 298 K [kcal/mol]
in O	-15.4

Nc1ccc2c(c1)C(=O)c1ccccc1C2=O
Details	solvation free energy, 298 K [kcal/mol]
in O	-11.5

CN(C)C=O
Details	solvation free energy, 298 K [kcal/mol]
in C1CCOC1	-5.99
in C1COCCO1	-6.17
in CC(C)=O	-6.43
in CCC(C)=O	-6.41
in CCCCCCCCCCCCCCCC	-3.88
in CCCCCCCCO	-5.95
in CCOC(C)=O	-6.1
in ClC(Cl)(Cl)Cl	-4.73
in O	-7.77
in [2H]O[2H]	-7.47
in c1ccccc1	-6.19

CCCCCCCCCCCO
Details	solvation free energy, 298 K [kcal/mol]
in CCCCCCCCCCO	-10.3

Cc1cc(C)c(C)cc1C
Details	solvation free energy, 298 K [kcal/mol]
in CC(C)(C)O	-6.62
in CC(C)CC(C)(C)C	-7.1
in CC(C)CC(C)O	-6.69
in CC(C)CCO	-6.63
in CC(C)CO	-6.52
in CC(C)O	-6.49
in CCC(C)O	-6.62
in CCCC(C)O	-6.69
in CCCCCC	-7.24
in CCCCCCC	-7.19
in CCCCCCCC	-7.14
in CCCCCCCCC=CCCCCCCCC(=O)OCC(COC(=O)CCCCCCCC=CCCCCCCCC)OC(=O)CCCCCCCC=CCCCCCCCC	-7.13
in CCCCCCCCCC	-7.08
in CCCCCCCCCCO	-6.84
in CCCCCCCCO	-6.81
in CCCCCCCO	-6.78
in CCCCCCO	-6.75
in CCCCCO	-6.71
in CCCCO	-6.71
in CCCCOCCCC	-7.19
in CCCO	-6.54
in CCO	-6.44
in CCOCC	-7.34
in CO	-6.18
in O	-0.72

OCC(O)C(O)C(O)CO (stereo not drawn)
Details	solvation free energy, 298 K [kcal/mol]
in CC(C)O	-13.4
in CCCCO	-13.3
in CCO	-13.8
in CN(C)C=O	-15.4
in O	-16.6

CCCSCCC
Details	solvation free energy, 298 K [kcal/mol]
in O	-1.28

CN1CCCC1c1cccnc1 (stereo not drawn)
Details	solvation free energy, 298 K [kcal/mol]
in O	-7.98

CC(C)(C)OC(=O)c1ccccc1C(=O)OC(C)(C)C
Details	solvation free energy, 298 K [kcal/mol]
in O	-7.09

CCCOC(=O)c1ccc(O)cc1
Details	solvation free energy, 298 K [kcal/mol]
in O	-9.37

c1ccc2c(c1)OCCOCCOc1ccccc1OCCOCCO2
Details	solvation free energy, 298 K [kcal/mol]
in Cc1cccc(C)c1	-21.7
in O	-18.2

c1c[nH]cn1
Details	solvation free energy, 298 K [kcal/mol]
in O	-9.63

Cc1cccc(O)c1
Details	solvation free energy, 298 K [kcal/mol]
in CC(C)CCCC(C)CCCC(C)CCCCC(C)CCCC(C)CCCC(C)C	-5.78
in CCCCCC	-5.84
in CCCCCCCCCCCCCCCC	-5.73

COc1ccc(C(=O)O)cc1
Details	solvation free energy, 298 K [kcal/mol]
in C1CCOC1	-12.7
in C1COCCO1	-12.4
in CC(C)CCO	-11.5
in CC(C)CO	-11.5
in CC(C)O	-11.8
in CC(C)OC(C)C	-10.8
in CC(C)OCCO	-12.3
in CC(O)COC(C)(C)C	-11.9
in CCC(C)O	-11.7
in CCCC(C)O	-11.6
in CCCCCCCCCCO	-11.4
in CCCCCCCCO	-11.5
in CCCCCCCO	-11.5
in CCCCCCO	-11.6
in CCCCCO	-11.6
in CCCCO	-11.7
in CCCCOC(C)=O	-11.5
in CCCCOCCO	-12.2
in CCCO	-11.8
in CCCOCCO	-12.2
in CCO	-12
in CCOC(C)=O	-11.8
in CCOCC	-11.5
in CCOCCO	-12.4
in COC(C)CCO	-12.3
in O	-9.14

[N]=O
Details	solvation free energy, 298 K [kcal/mol]
in CC#N	0.63
in CCCCCC	0.47
in CCO	0.81
in CCOC(C)=O	0.55
in CCOCC	0.34
in CO	0.62
in Cc1cccc(C)c1	0.79
in Cc1ccccc1	0.76
in ClC(Cl)(Cl)Cl	0.62

CCCCCCCCCCCOC(=O)c1ccccc1C(=O)OCCCCCCCCCCC
Details	solvation free energy, 298 K [kcal/mol]
in O	-6.08

CCCCC(=O)OCC
Details	solvation free energy, 298 K [kcal/mol]
in O	-2.49

Cn1cccc1
Details	solvation free energy, 298 K [kcal/mol]
in O	-2.89

Clc1cc(Cl)c(-c2ccccc2)c(Cl)c1
Details	solvation free energy, 298 K [kcal/mol]
in O	-2.16

O=C(O)c1cc(O)c(O)c(O)c1
Details	solvation free energy, 298 K [kcal/mol]
in CCO	-19.8

Cc1ccc(C(C)C)cc1
Details	solvation free energy, 298 K [kcal/mol]
in COCCO	-5.72
in CS(C)=O	-5.55
in O	-0.67

O=C(O)c1ccc(I)cc1
Details	solvation free energy, 298 K [kcal/mol]
in CN(C)C=O	-14
in O	-7.96

CCOP(=S)(OCC)Oc1ccc([N+](=O)[O-])cc1
Details	solvation free energy, 298 K [kcal/mol]
in O	-6.74

CCC=CCCC=O
Details	solvation free energy, 298 K [kcal/mol]
in O	-3.19
